Columns and labels:
[1] = tested on: human liver microsomes and a human S9 fraction; test: Heroin metabolism in control liver fractions; assay type: in vitro ADME; details: controls: human liver microsomes and human S9 fraction
Excerpt: The field of non-CYP450-mediated metabolism has attracted increasing attention as an important player in absorption, distribution, metabolism, and excretion^44. We investigated liver carboxyl esterases (CES), which are hydrolytic enzymes involved in the metabolism of endogenous esters, ester-containing drugs, pro-drugs and environmental toxicants^45. The CES enzymes also metabolize a wide range of xenobiotic substrates including heroin, which is metabolized by sequential deacetylation (phase I reaction) to 6-monoacetylmorphine (6-MAM) and morphine. Morphine is then glucuronidated, by a phase II reaction via UDP-glucuronosyltransferase (UGT) to morphine-3-glucuronide (M3G). We tested if organoids supported heroin metabolism by exposure to 10 μM heroin and quantification by UPLC-MS/MS. We also compared organoid metabolism to human liver microsomes and a human S9 fraction (unfractionated microsomes and cytosol. The kinetics of metabolism was slower in the organoids we observed phase I metabolism of heroin by CES to morphine in approximately 6 hours, while the controls produced morphine in approximately 12 minutes. However, phase II metabolism (UGT) to morphine glucuronides was detectable in the organoids and absent in the controls.

organoids [2] = test: Heroin metabolism in liver organoids (UPLC-MS/MS); assay type: in vitro ADME, human; details: 10 μM heroin
Method: After 21 days differentiation, 50 organoids per well were loaded in triplicate into a 96-well plate and treated with culture media supplemented with 10 μM heroin for 1, 3, 6, and 24 hours. For controls, we used culture media without organoids; these were performed in parallel to measure heroin degradation throughout the experiment. To stop metabolism at each time point the samples were transferred to a new 96-well plate prefilled with formic acid (final conc. 0.1 M) along with internal standards. The samples were centrifuged for 10 minutes at 1000×g at 4° C. The supernatants were transferred to auto-sampler vials and analysed for heroin, morphine, and M3G using an Acquity UPLC system (Waters, Milford, MA) coupled to a Xevo-TQS triple quadrupole mass spectrometer with an electrospray ionization interface (Waters) based on a method previously described 62. Data acquisition, peak integration, and quantification of samples were performed using MassLynx 4.0 SCN509 software (Waters Corp., Milford, MA, USA).
The field of non-CYP450-mediated metabolism has attracted increasing attention as an important player in absorption, distribution, metabolism, and excretion^44. […] We tested if organoids supported heroin metabolism by exposure to 10 μM heroin and quantification by UPLC-MS/MS. […]

organoids [3] = test: Oleic acid accumulation assay (BODIPY lipid staining); assay type: cell-based, human; details: 300 μM, 5 days
Method: 1 M Oleic acid (Sigma Aldrich) was diluted with NaOH (Sigma Aldrich) and heated at 70° C. for 30 minutes to form a 20 mM Sodium Oleate solution. This was then diluted with a 5% BSA/PBS solution at 37° C. to form a 5 mM Sodium Oleate/BSA complex. This was further diluted to 300 μM in culture media and incubated with organoids for 5 days, changing the media each day. After the fatty acid treatment, the organoids were then incubated with 3.8 μM BODIPY 493/503 (Life Technologies) for 30 minutes in culture media at 37° C., then washed two times with PBS before replacing with fresh culture media containing DRAQ5 (Thermofisher) at 1:1500. Organoids were then imaged on a confocal as described above.

`CC(=O)Oc1ccc2c3c1O[C@H]1[C@@H](OC(C)=O)C=C[C@H]4[C@@H](C2)N(C)CC[C@@]341` [heroin] was tested, and the “phase II metabolism (UGT) to morphine glucuronides” value [1] was “absent” and the “phase II metabolism (UGT) to morphine glucuronides” value (organoids [2]) was “detectable”.
For `CCCCCCCC/C=C\CCCCCCCC(=O)O` [free fatty acid, Oleic acid], the “lipid accumulation in organoids (Bodipy)” value (organoids [3]) was “massive lipid accumulation”.
